Tested on: canine fecal microbiome
Conditions: dog, in vivo

For `Cc1ncc([N+](=O)[O-])n1CCO` [metronidazole], the “dysbiosis (community evenness, distance from healthy controls, potential pathogens)” value was “exacerbated dysbiosis”.
